# Source: US20030180295A1, “Angiocidin: a Cys-Ser-Val-Thr-Cys-Gly specific tumor cell adhesion receptor” (Philadelphia Health and Education Corporation, priority 1999, published 2003)
# Legend:
# Format in all cases: cell-based
# [1] = tested on: Bovine aortic endothelial cells (BAEC); assay: Collagen matrix angiogenesis assay (microvessel formation); details: 37 μg/ml, 24 hours
# Procedure: An experiment was performed to evaluate the effect of angiocidin on angiogenesis. Bovine aortic endothelial cells (BAEC) were plated on a collagen matrix. Next, the cells were over-layered with collagen. Angiocidin (37 μg/ml) was added on top of the cells in the treatment plate, and the control plate only received buffer. After 24 hours, phase contrast photomicrographs (200×) were taken. In the control plate, the BAEC cells rearranged themselves into a network of microvessels. […] This collagen assay is a well recognized model for angiogenesis. Qian et al., Thrombospondin-1 modulates angiogenesis in vitro by up-regulation of matrix metalloproteinase-9 in endothelial cells, Exp. Cell Res. 235:403-412 (1997).
# [2] = tested on: Bovine aortic endothelial cells (BAEC); assay: Microvessel stability in collagen matrix; details: added after 24 hours of microvessel formation, read after additional 24 hours
# Procedure: An experiment was performed to evaluate the effect of angiocidin on angiogenesis. Bovine aortic endothelial cells (BAEC) were plated on a collagen matrix. Next, the cells were over-layered with collagen. Angiocidin (37 μg/ml) was added on top of the cells in the treatment plate, and the control plate only received buffer. After 24 hours, phase contrast photomicrographs (200×) were taken. In the control plate, the BAEC cells rearranged themselves into a network of microvessels. […] The experiment in this example was performed as in Example 16, however, no treatment was given to the cells initially. After 24 hours, microvessels formed in both samples, and looked similar to the control plate in FIG. 19. Buffer and angiocidin were then added to the control and treatment plates, respectively. After an additional 24 hours, Hoffman interference photomicrographs were taken. Here, the control was not affected.
# [3] = tested on: MDA-MB-435 Breast Carcinoma Cells; assay: Cell adhesion to immobilized recombinant receptor
# Procedure: For the adhesion assay, in a 96 well plate, duplicate wells were covered with either TSP-1 (40 μg/ml), fibronectin (40 μg/ml), or and 1% bovine serum albumin (BSA). The wells were dried out overnight and then blocked with BSA. 100 μl of a suspension containing 2×10^5 cells were plated in the protein covered wells and incubated at 37^□ C. for 20 minutes to 1 hour. The non-adherent cells were removed and the wells were washed with a Hepes buffer. The adherent cells were fixed with 2.5% glutaraldehyde for 10 minutes and stained with 0.2% Giemsa. The stain was washed off and the cells were counted in a field of 1 mm square. Cells adhering to BSA were considered background while cells adhering to fibronectin were the positive control.
# The method of Example 12 was followed except the whole receptor protein was immobilized on the plates, and cells transfected with either TSP-1 cDNA or a vector control were applied to the plates. The cells, which naturally express a low level of TSP-1, were transfected to over express the protein. […] Fibronectin and BSA were used as positive and negative controls, respectively, for cell adhesion. This evidence bolsters the theory that the receptor of the present invention binds to thrombospondin.
# This specific interaction was confirmed by adding anti-TSP-1 antibodies, Anti-Cys-Ser-Val-Cys-Thr-Gly (SEQ ID NO: 1), and control IgG to the system.
substance,measurement,setting,value
angiocidin: Cys-Ser-Val-Thr-Cys-Gly (SEQ ID NO: 1)-specific thrombospondin (TSP-1) receptor protein; recombinant form of SEQ ID NO: 2 used in the Examples,microvessel formation,[1],the microvessels did not form and the cells appeared dead
same,stability of formed microvessels,[2],disrupted the microvessels that had already formed
same,inhibition of cell adhesion to receptor bound to the plate by unbound receptor,"[3]; nontransfected, naturally TSP-1 expressing cells, FIG. 17",reduced the adhesion of the cells to the plate
same,adhesion of TSP-1 cDNA transfected cells to plates with receptor protein relative to control cell line,[3]; p<0.001,2.5 times
